Assay results taken from the NIST ThermoML archive (doi:10.1021/je7003098).
± gives the expanded uncertainty stated by the source.

Conditions: for mass density: 101.33 kPa, Liquid, Pycnometric method; for surface tension liquid-gas: Ring tensiometer

Compound: CCCCCCCC[N+](C)(CCCCCCCC)CCCCCCCC.O=S(=O)([N-]S(=O)(=O)C(F)(F)F)C(F)(F)F
- mass density (298.15 K): 1082.3 ± 26 kg/m3
- surface tension liquid-gas (299.46 K): 29.06 ± 4.2 mN/m
- mass density (303.15 K): 1080.3 ± 26 kg/m3
- surface tension liquid-gas (303.25 K): 28.93 ± 4.1 mN/m
- mass density (308.15 K): 1077.3 ± 26 kg/m3
- surface tension liquid-gas (310.18 K): 28.53 ± 4.1 mN/m
- mass density (313.15 K): 1073.8 ± 26 kg/m3
- surface tension liquid-gas (313.77 K): 28.23 ± 4 mN/m
- mass density (318.15 K): 1073.8 ± 26 kg/m3
- surface tension liquid-gas (318.67 K): 27.85 ± 4 mN/m
- surface tension liquid-gas (321 K): 27.63 ± 4 mN/m
- mass density (323.15 K): 1067.2 ± 26 kg/m3
- surface tension liquid-gas (326.3 K): 27.18 ± 3.9 mN/m
- mass density (328.15 K): 1063.9 ± 26 kg/m3
- surface tension liquid-gas (329.6 K): 27.01 ± 3.9 mN/m
- mass density (333.15 K): 1061.1 ± 26 kg/m3
- surface tension liquid-gas (336.79 K): 26.69 ± 3.8 mN/m

Compound: CCCCCC[N+](C)(C)C.O=S(=O)([N-]S(=O)(=O)C(F)(F)F)C(F)(F)F [hexyltrimethylammonium bis[(trifluoromethyl)sulfonyl]imide]
- mass density (298.15 K): 1310.6 ± 26 kg/m3
- surface tension liquid-gas (300.35 K): 35.88 ± 5.1 mN/m
- surface tension liquid-gas (302.35 K): 35.71 ± 5.1 mN/m
- mass density (303.15 K): 1307.8 ± 26 kg/m3
- surface tension liquid-gas (304.25 K): 35.57 ± 5.1 mN/m
- surface tension liquid-gas (307.65 K): 35.32 ± 5 mN/m
- mass density (308.15 K): 1304 ± 26 kg/m3
- surface tension liquid-gas (311.05 K): 35.09 ± 5 mN/m
- mass density (313.15 K): 1299.5 ± 26 kg/m3
- surface tension liquid-gas (314.75 K): 34.86 ± 5 mN/m
- surface tension liquid-gas (318.15 K): 34.64 ± 5 mN/m
- mass density (318.15 K): 1295.7 ± 26 kg/m3
- surface tension liquid-gas (322.55 K): 34.36 ± 4.9 mN/m
- mass density (323.15 K): 1292.1 ± 26 kg/m3
- surface tension liquid-gas (326.25 K): 34.14 ± 4.9 mN/m
- mass density (328.15 K): 1287.9 ± 26 kg/m3
- surface tension liquid-gas (331.35 K): 33.86 ± 4.8 mN/m
- mass density (333.15 K): 1283.9 ± 26 kg/m3
- surface tension liquid-gas (333.35 K): 33.77 ± 4.8 mN/m

Compound: CCn1cc[n+](C)c1.O=S(=O)([N-]S(=O)(=O)C(F)(F)F)C(F)(F)F
- surface tension liquid-gas (298.7 K): 41.62 ± 5.9 mN/m
- surface tension liquid-gas (302.05 K): 41.38 ± 5.8 mN/m
- surface tension liquid-gas (305.74 K): 41.19 ± 5.8 mN/m
- surface tension liquid-gas (309.16 K): 41.02 ± 5.8 mN/m
- surface tension liquid-gas (312.6 K): 40.87 ± 5.8 mN/m
- surface tension liquid-gas (316.2 K): 40.67 ± 5.7 mN/m
- surface tension liquid-gas (319.33 K): 40.5 ± 5.7 mN/m
- surface tension liquid-gas (322.63 K): 40.39 ± 5.7 mN/m
- surface tension liquid-gas (326.13 K): 40.19 ± 5.6 mN/m
- surface tension liquid-gas (331.02 K): 39.94 ± 5.6 mN/m

Compound: CCCC[N+](C)(C)C.O=S(=O)([N-]S(=O)(=O)C(F)(F)F)C(F)(F)F [butyltrimethylammonium bis(trifluoromethylsulfonyl)imide]
- mass density (298.15 K): 1374.7 ± 27 kg/m3
- surface tension liquid-gas (298.35 K): 38.05 ± 5.4 mN/m
- surface tension liquid-gas (302.33 K): 37.9 ± 5.4 mN/m
- mass density (303.15 K): 1368.6 ± 27 kg/m3
- surface tension liquid-gas (306.15 K): 37.8 ± 5.4 mN/m
- mass density (308.15 K): 1365.6 ± 27 kg/m3
- surface tension liquid-gas (309.93 K): 37.69 ± 5.4 mN/m
- mass density (313.15 K): 1361.4 ± 27 kg/m3
- surface tension liquid-gas (314.79 K): 37.48 ± 5.3 mN/m
- mass density (318.15 K): 1357.3 ± 27 kg/m3
- surface tension liquid-gas (320.39 K): 37.28 ± 5.3 mN/m
- mass density (323.15 K): 1353.7 ± 27 kg/m3
- surface tension liquid-gas (326.4 K): 37.09 ± 5.3 mN/m
- mass density (328.15 K): 1349.7 ± 27 kg/m3
- surface tension liquid-gas (330.16 K): 36.91 ± 5.3 mN/m
- mass density (333.15 K): 1343.9 ± 27 kg/m3
- surface tension liquid-gas (335.64 K): 36.68 ± 5.2 mN/m
- surface tension liquid-gas (340.58 K): 36.5 ± 5.2 mN/m

Compound: CCCC[P+](CC)(CCCC)CCCC.CCOP(=O)([O-])OCC [tributylethylphosphonium diethylphosphate]
- surface tension liquid-gas (296.66 K): 33.6 ± 4.8 mN/m
- mass density (298.15 K): 997.8 ± 26 kg/m3
- surface tension liquid-gas (302.18 K): 33.29 ± 4.8 mN/m
- mass density (303.15 K): 995.7 ± 26 kg/m3
- surface tension liquid-gas (307.24 K): 33.14 ± 4.7 mN/m
- mass density (308.15 K): 992.8 ± 26 kg/m3
- surface tension liquid-gas (312.34 K): 32.82 ± 4.7 mN/m
- mass density (313.15 K): 989.7 ± 26 kg/m3
- mass density (318.15 K): 985.8 ± 26 kg/m3
- surface tension liquid-gas (318.36 K): 32.24 ± 4.6 mN/m
- mass density (323.15 K): 982.6 ± 26 kg/m3
- surface tension liquid-gas (323.59 K): 31.62 ± 4.5 mN/m
- mass density (328.15 K): 979.5 ± 26 kg/m3
- surface tension liquid-gas (329.67 K): 31.14 ± 4.5 mN/m
- mass density (333.15 K): 975.8 ± 26 kg/m3
- surface tension liquid-gas (336.36 K): 30.66 ± 4.4 mN/m
- surface tension liquid-gas (343.4 K): 30.15 ± 4.3 mN/m
- surface tension liquid-gas (347.75 K): 29.82 ± 4.3 mN/m
- surface tension liquid-gas (350.86 K): 29.59 ± 4.2 mN/m

Compound: CCCCCCCCCC[N+](C)(C)C.O=S(=O)([N-]S(=O)(=O)C(F)(F)F)C(F)(F)F
- mass density (298.15 K): 1226.3 ± 26 kg/m3
- surface tension liquid-gas (300.96 K): 35.42 ± 5.1 mN/m
- surface tension liquid-gas (302.95 K): 35.12 ± 5 mN/m
- mass density (303.15 K): 1222.2 ± 26 kg/m3
- surface tension liquid-gas (307.75 K): 34.81 ± 5 mN/m
- mass density (308.15 K): 1218.6 ± 26 kg/m3
- surface tension liquid-gas (312.28 K): 34.55 ± 4.9 mN/m
- mass density (313.15 K): 1214.7 ± 26 kg/m3
- surface tension liquid-gas (318.08 K): 34.2 ± 4.9 mN/m
- mass density (318.15 K): 1210.6 ± 26 kg/m3
- mass density (323.15 K): 1206.3 ± 26 kg/m3
- surface tension liquid-gas (324.03 K): 33.71 ± 4.8 mN/m
- mass density (328.15 K): 1204.7 ± 26 kg/m3
- surface tension liquid-gas (330.53 K): 33.36 ± 4.8 mN/m
- mass density (333.15 K): 1200.3 ± 26 kg/m3
- surface tension liquid-gas (337.12 K): 32.82 ± 4.7 mN/m
- surface tension liquid-gas (342.53 K): 32.51 ± 4.6 mN/m
- surface tension liquid-gas (347.26 K): 32.23 ± 4.6 mN/m

Compound: CCCCCCCCCCCCCC[P+](CCCCCC)(CCCCCC)CCCCCC.O=S(=O)([N-]S(=O)(=O)C(F)(F)F)C(F)(F)F
- mass density (298.15 K): 1050.1 ± 25 kg/m3
- surface tension liquid-gas (298.2 K): 33.08 ± 4.7 mN/m
- surface tension liquid-gas (303 K): 32.57 ± 4.6 mN/m
- mass density (303.15 K): 1048.3 ± 25 kg/m3
- surface tension liquid-gas (308 K): 32.15 ± 4.5 mN/m
- mass density (308.15 K): 1045.2 ± 25 kg/m3
- surface tension liquid-gas (313 K): 31.77 ± 4.5 mN/m
- mass density (313.15 K): 1042 ± 25 kg/m3
- surface tension liquid-gas (318 K): 31.4 ± 4.4 mN/m
- mass density (318.15 K): 1039.2 ± 25 kg/m3
- mass density (323.15 K): 1035.6 ± 25 kg/m3
- surface tension liquid-gas (323.3 K): 31.09 ± 4.4 mN/m
- surface tension liquid-gas (327.9 K): 30.65 ± 4.3 mN/m
- mass density (328.15 K): 1032.9 ± 25 kg/m3
- surface tension liquid-gas (332.9 K): 30.28 ± 4.3 mN/m
- mass density (333.15 K): 1029.6 ± 25 kg/m3
- surface tension liquid-gas (338.9 K): 29.68 ± 4.2 mN/m
- surface tension liquid-gas (344.2 K): 29.45 ± 4.2 mN/m
- surface tension liquid-gas (349.8 K): 28.93 ± 4.1 mN/m
